Laboratory results published in patent US7671061B2, “Methods and compositions for treating pain” (Hydra Biosciences, Inc., priority 2005, dated 2010).
pIC50: −log10 of the molar value.

What was measured:
[1] = molecular target: T1, hTRPA1 (Homo sapiens, UniProt O75762, K186N); assay: TRPA1 patch clamp (perforated patch, AITC-activated current); assay type: cell-based
T1 construct: expressed in transfected cells; host or cells: HEK293/TREx (Invitrogen), induced with tetracycline
Description: Patch clamp experiments permit the detection of currents through the TRPA1 channel in the cell line described above. To permit recording of current at a stable level and prevent the “rundown” observed by other labs, it is necessary to use the perforated patch technique, which prevents dialysis of the cytoplasm with the pipette solution. In normal whole-cell patch clamp recordings, a glass electrode is brought into contact with a single cell and a high-resistance (gigaohm) seal is established with the cell membrane. The membrane is then ruptured to achieve the whole-cell configuration, permitting control of the voltage of the cell membrane and measurement of currents flowing across the membrane using the amplifier attached to the electrode and resulting in the replacement of cytoplasm with the pipette solution. In contrast, in the perforated patch mode, an antibiotic, amphotericin, is present in the pipette solution and diffuses into contact with the cell after the seal is achieved, over the course of several minutes. The amphotericin forms ion-permeable pores in the membrane under the pipette, permitting passage of some ions but maintaining most native cytosolic components. A perfusion system permits control of the extracellular solution, including the addition of blockers and activators of the current. The current can be activated by addition of 5 μM AITC to the solution. […] In some cases, cells were grown in low density overnight on glass coverslips. Patch clamp recordings were made in the whole-cell mode with a holding potential of −40 mV. Every 5 seconds, a voltage ramp was applied from −120 to +100 mV, 400 ms in duration. Currents elicited were quantified at −80 mV and +80 mV. […] The external solution consisted of 150 mM NaCl, 4.5 mM KCl, 3 mM MgCl2, 10 mM HEPES, […], 1 mM EGTA, pH 7.4. Upon addition of AITC, TRPA1 current was induced only in TRPA1-expressing cells and not in parental HEK293 TREx cells. Removal of the AITC stimulus causes most of the current to go away. Potential blockers were tested for ability to block both inward and outward currents in the continued presence of AITC.

[2] = molecular target: T1, hTRPA1; assay: High throughput Ca2+ fluorescence (Fluo4) assay, AITC stimulation; assay type: cell-based; conditions: Table 2; read-out: hTRPA1 Fluor IC50
Summary of the method: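 Read-out is Fluo4 fluorescence, proportional to [Ca2+]i, over ~3 min after AITC challenge, following 2 min compound pre-exposure in HEK293/TREx cells induced with 1 μg/ml tetracycline. Dye: 1 μM, 60 min, room temperature.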

[3] = Table 2, inward current, read-out: hTRPA1 Patch Inwd IC50

T1 sequence (O75762 whole entry K186N): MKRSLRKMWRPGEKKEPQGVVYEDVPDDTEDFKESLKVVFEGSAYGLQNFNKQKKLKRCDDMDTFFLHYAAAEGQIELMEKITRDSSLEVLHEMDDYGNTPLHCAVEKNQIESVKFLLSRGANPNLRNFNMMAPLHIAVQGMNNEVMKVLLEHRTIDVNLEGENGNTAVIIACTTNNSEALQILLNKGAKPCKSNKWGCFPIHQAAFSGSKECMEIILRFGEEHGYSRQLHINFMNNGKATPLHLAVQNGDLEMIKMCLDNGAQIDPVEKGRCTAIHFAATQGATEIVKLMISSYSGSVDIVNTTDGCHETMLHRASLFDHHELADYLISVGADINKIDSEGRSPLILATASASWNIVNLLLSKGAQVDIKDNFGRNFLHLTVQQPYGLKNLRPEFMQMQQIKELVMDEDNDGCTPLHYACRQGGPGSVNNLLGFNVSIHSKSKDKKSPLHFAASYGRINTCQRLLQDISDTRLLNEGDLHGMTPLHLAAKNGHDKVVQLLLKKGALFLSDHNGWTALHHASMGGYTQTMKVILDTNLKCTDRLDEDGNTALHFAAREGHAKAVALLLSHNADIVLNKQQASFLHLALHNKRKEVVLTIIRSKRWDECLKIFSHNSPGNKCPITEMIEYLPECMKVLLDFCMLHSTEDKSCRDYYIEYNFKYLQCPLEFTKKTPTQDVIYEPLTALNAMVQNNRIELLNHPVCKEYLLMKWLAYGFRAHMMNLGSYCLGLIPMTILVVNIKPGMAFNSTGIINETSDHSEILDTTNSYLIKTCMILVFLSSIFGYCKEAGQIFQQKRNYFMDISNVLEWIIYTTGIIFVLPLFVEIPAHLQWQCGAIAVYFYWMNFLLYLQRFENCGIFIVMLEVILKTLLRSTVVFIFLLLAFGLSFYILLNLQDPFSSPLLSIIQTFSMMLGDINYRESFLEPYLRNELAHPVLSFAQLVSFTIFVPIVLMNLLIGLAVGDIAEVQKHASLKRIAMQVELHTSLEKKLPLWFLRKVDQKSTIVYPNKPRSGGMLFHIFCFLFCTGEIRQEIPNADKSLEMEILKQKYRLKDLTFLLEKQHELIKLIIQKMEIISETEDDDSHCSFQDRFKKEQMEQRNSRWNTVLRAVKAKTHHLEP

Structure (SMILES)	pIC50 [1, 3]	pIC50 [2]	further results
COC(=O)C1=C(c2ccccc2)NC(=S)NC1c1ccc(OC)c(OC)c1 (centres unmarked)			pIC50 ([1]; Table 1, read-out: hTRPA1 Patch IC50): ≥ 5.00
Cn1c(=O)c2c(ncn2CC(=O)NCc2ccccc2Cl)n(C)c1=O [Compound 236]	< 5.00		
CC1CCCC(NC(=O)Cn2cnc3c2c(=O)n(C)c(=O)n3C)C1C (centres unmarked) [Compound 349]		< 5.00	
Cn1c(=O)c2c(ncn2CC(=O)Nc2ccccc2SCc2ccccc2)n(C)c1=O [Compound 351]		< 5.00	
Cn1c(=O)c2c(ncn2CC(=O)NC(c2ccccc2)c2cccs2)n(C)c1=O (centres unmarked) [Compound 352]		< 5.00	
Cc1nc(-c2ccc(CCNC(=O)Cn3cnc4c3c(=O)n(C)c(=O)n4C)cc2)cs1 [Compound 353]		≥ 5.30	
Cn1c(=O)c2c(ncn2CC(=O)Nc2ccc(N3CCCCCC3)cc2)n(C)c1=O [Compound 354]		≥ 5.30	
Cc1cccc(NC(=O)c2ccccc2NC(=O)Cn2cnc3c2c(=O)n(C)c(=O)n3C)c1 [Compound 355]		≤ 4.70	
Cc1c(C#N)c(NC(=O)Cn2cnc3c2c(=O)n(C)c(=O)n3C)n(Cc2ccccc2)c1C [Compound 356]		< 5.00	
Cn1c(=O)c2c(ncn2CC(=O)NC(CN2CCOCC2)c2ccccc2)n(C)c1=O (centres unmarked) [Compound 357]		< 5.00	
CCOC(=O)c1ccccc1NC(=O)Cn1cnc2c1c(=O)n(C)c(=O)n2C [Compound 362]		< 5.00	
COC(=O)c1ccc(NC(=O)Cn2cnc3c2c(=O)n(C)c(=O)n3C)cc1 [Compound 363]		≥ 5.00	
COc1ccc(CNC(=O)Cn2cnc3c2c(=O)n(C)c(=O)n3C)cc1 [Compound 364]		< 5.00	
CCOC(=O)c1ccc(NC(=O)Cn2cnc3c2c(=O)n(C)c(=O)n3C)cc1 [Compound 366]		≥ 5.30	
CCCC(C)NC(=O)Cn1cnc2c1c(=O)n(C)c(=O)n2C (centres unmarked) [Compound 376]		< 5.00	
Cn1c(=O)c2c(ncn2CC(=O)NCc2ccc3c(c2)OCO3)n(C)c1=O [Compound 377]		< 5.00	
COC(=O)C(CC(C)C)NC(=O)Cn1cnc2c1c(=O)n(C)c(=O)n2C (centres unmarked) [Compound 378]		< 5.00	
CC(CCc1ccccc1)NC(=O)Cn1cnc2c1c(=O)n(C)c(=O)n2C (centres unmarked) [Compound 379]		< 5.00	

Structure (SMILES)	pIC50 [1, 3]	pIC50 [2]	further results
CCc1sc(NC(=O)Cn2cnc3c2c(=O)n(C)c(=O)n3C)nc1-c1ccccc1 [Compound 381]		≥ 5.00	
CCC(C)(C)NC(=O)Cn1cnc2c1c(=O)n(C)c(=O)n2C [Compound 382]		< 5.00	
Cn1c(=O)c2c(ncn2CC(=O)Nc2ccccc2Sc2ccccc2)n(C)c1=O [Compound 384]		≥ 5.00	
CC(C)NC(=O)c1ccccc1NC(=O)Cn1cnc2c1c(=O)n(C)c(=O)n2C [Compound 385]		< 5.00	
CC(C)c1ccc(NC(=O)C(C)(C)n2cnc3c2c(=O)n(C)c(=O)n3C)cc1 [Compound 387, 2-(1,3-dimethyl-2,6-dioxo-1,2,3,6-tetrahydropurin-7-yl)-N-(4-isopropylphenyl)-2-methylpropanamide]	< 5.00		
CC(C)c1ccc(NC(=O)Cn2cnc3c2c(=O)[nH]c(=O)n3C)cc1 [Compound 388, N-(4-isopropylphenyl)-2-(3-methyl-2,6-dioxo-1,2,3,6-tetrahydropurin-7-yl)acetamide]	< 5.00		
Cn1c(=O)c2c(ncn2CC(=O)NCCc2ccc(S(N)(=O)=O)cc2)n(C)c1=O [Compound 389]	< 5.00		
COc1ccc(CCNC(=O)Cn2cnc3c2c(=O)n(C)c(=O)n3C)cc1OC [Compound 390]			IC50 ([1]; hTRPA1 Patch Inwd IC50 (nM), Table 2, inward current): ≤ 10000 nM
CC(C)c1ccc(NC(=O)Cn2cnc3[nH]c(=O)n(C)c(=O)c32)cc1 [Compound 391, N-(4-isopropylphenyl)-2-(1-methyl-2,6-dioxo-1,2,3,6-tetrahydropurin-7-yl)acetamide]	≥ 5.00		
CC(C)c1ccc(N(C)C(=O)Cn2cnc3[nH]c(=O)n(C)c(=O)c32)cc1 [Compound 392, N-(4-isopropylphenyl)-N-methyl-2-(1-methyl-2,6-dioxo-1,2,3,6-tetrahydropurin-7-yl)acetamide]	< 5.00		
CC(C)c1ccc(N(C)C(=O)Cn2cnc3c2c(=O)n(C)c(=O)n3C)cc1 [Compound 393, 2-(1,3-dimethyl-2,6-dioxo-1,2,3,6-tetrahydropurin-7-yl)-N-(4-isopropylphenyl)-N-methylacetamide]	< 5.00		
Cn1c(=O)[nH]c(=O)c2c1ncn2CC(=O)Nc1ccc(C2CCCC2)cc1 [Compound 394, N-(4-cyclopentylphenyl)-2-(3-methyl-2,6-dioxo-1,2,3,6-tetrahydropurin-7-yl)acetamide]	≥ 5.30		
CN(C)c1ccc(CCNC(=O)Cn2cnc3c2c(=O)n(C)c(=O)n3C)cc1 [Compound 397, N-[2-(4-Dimethylaminophenyl)-ethyl]-2-(1,3-dimethyl-2,6-dioxo-1,2,3,6-tetrahydropurin-7-yl)-acetamide]	≥ 5.30		
Cn1c(=O)c2c(ncn2CC(=O)Nc2ccccc2C2CCCC2)n(C)c1=O [Compound 398, N-(2-cyclopentylphenyl)-2-(1,3-dimethyl-2,6-dioxo-1,2,3,6-tetrahydropurin-7-yl)acetamide]	≥ 5.00		
CC(C)c1ccc(NC(=O)Cn2cnc3[nH]c(=O)[nH]c(=O)c32)cc1 [Compound 399, 2-(2,6-dioxo-1,2,3,6-tetrahydropurin-7-yl)-N-(4-isopropylphenyl)acetamide]	≥ 5.00		
Cc1ccc(CCNC(=O)Cn2cnc3c2c(=O)n(C)c(=O)n3C)cc1 [Compound 400, 2-(1,3-Dimethyl-2,6-dioxo-1,2,3,6-tetrahydro-purin-7-yl)-N-(2-p-tolyl-ethyl)-acetamide]	≥ 6.00		
COc1ccc(CCCNC(=O)Cn2cnc3c2c(=O)n(C)c(=O)n3C)cc1 [Compound 401, 2-(1,3-Dimethyl-2,6-dioxo-1,2,3,6-tetrahydropurin-7-yl)-N-[3-(4-methoxy-phenyl)-propyl]-acetamide]	≥ 5.30		

Continued, in another order:

pIC50 [1, 3]	pIC50 [2]	Structure (SMILES)	further results
≥ 5.30		Cn1c(=O)c2c(ncn2CC(=O)Nc2ccc3c(c2)CCC3)n(C)c1=O [Compound 240]	
≥ 5.30		COc1ccc(Cl)cc1NC(=O)Cn1cnc2c1c(=O)n(C)c(=O)n2C [Compound 285]	
	≤ 4.52	COC(=O)c1ccc(C)c(NC(=O)Cn2cnc3c2c(=O)n(C)c(=O)n3C)c1 [Compound 346]	
	< 5.00	Cc1ccccc1NC(=O)Cn1cnc2c1c(=O)n(C)c(=O)n2C [Compound 358]	
	< 5.00	CCc1cccc(C)c1NC(=O)Cn1cnc2c1c(=O)n(C)c(=O)n2C [Compound 359]	
	≥ 5.00	CC(=O)c1ccc(NC(=O)Cn2cnc3c2c(=O)n(C)c(=O)n3C)cc1 [Compound 360]	
	< 5.00	COc1ccccc1NC(=O)Cn1cnc2c1c(=O)n(C)c(=O)n2C [Compound 361]	
	< 5.00	COC(=O)c1ccccc1NC(=O)Cn1cnc2c1c(=O)n(C)c(=O)n2C [Compound 365]	
	< 5.00	Cn1c(=O)c2c(ncn2CC(=O)Nc2cccnc2)n(C)c1=O [Compound 367]	
	< 5.00	Cn1c(=O)c2c(ncn2CC(=O)NCc2ccco2)n(C)c1=O [Compound 368]	
	< 5.00	Cn1c(=O)c2c(ncn2CC(=O)Nc2ccccn2)n(C)c1=O [Compound 369]	
	< 5.00	Cc1ccnc(NC(=O)Cn2cnc3c2c(=O)n(C)c(=O)n3C)c1 [Compound 370]	
	≤ 4.52	Cc1ccc(NC(=O)Cn2cnc3c2c(=O)n(C)c(=O)n3C)nc1 [Compound 372]	
	< 5.00	COc1ccc(C)cc1NC(=O)Cn1cnc2c1c(=O)n(C)c(=O)n2C [Compound 373]	
	≤ 4.70	Cc1ccc(Cl)cc1NC(=O)Cn1cnc2c1c(=O)n(C)c(=O)n2C [Compound 374]	
	< 5.00	Cc1cc(C)c(NC(=O)Cn2cnc3c2c(=O)n(C)c(=O)n3C)c(C)c1 [Compound 375]	
	< 5.00	CC(=O)c1cccc(NC(=O)Cn2cnc3c2c(=O)n(C)c(=O)n3C)c1 [Compound 380]	
	< 5.00	CCc1cccc(CC)c1NC(=O)Cn1cnc2c1c(=O)n(C)c(=O)n2C [Compound 383]	
	≥ 5.30	Cn1c(=O)c2c(ncn2CC(=O)Nc2cc(F)cc(F)c2)n(C)c1=O [Compound 386]	
≥ 6.30		Cn1c(=O)c2c(ncn2CC(=O)Nc2ccc(C3CCCC3)cc2)n(C)c1=O [Compound 395, N-(4-cyclopentylphenyl)-2-(1,3-dimethyl-2,6-dioxo-1,2,3,6-tetrahydropurin-7-yl)acetamide]	
≥ 6.00		Cn1c(=O)c2c(ncn2CC(=O)NCCc2ccc(Cl)c(Cl)c2)n(C)c1=O [Compound 396, N-[2-(3,4-Dichlorophenyl)-ethyl]-2-(1,3-dimethyl-2,6-dioxo-1,2,3,6-tetrahydro-purin-7-yl)-acetamide]	
